# Laboratory results as given in US20110124888A1, “STYRYLBENZOFURAN DERIVATIVES AS INHIBITORS FOR BETA-AMYLOID FIBRIL FORMATION AND PREPARATION METHOD THEREOF” (Korea Institute of Science and Technology, priority 2008, published 2011).
# pIC50: −log10 of the molar value. Read-outs that look alike come from different tables or passages of the source.
# Experiments:
# beta-amyloid 42 (Aβ42) = target: T1, beta-amyloid 42 (Aβ42) (Homo sapiens, UniProt P05067); experiment: Inhibitory effect on the formation of beta-amyloid fibrils in vitro (ThT fluorescence assay); type: biochemical; conditions: for inhibition at 10 µM: 10 μM compound, Aβ42 25 μM, read-out: % Inhibition (10 μM); for pIC50: In vitro ThT analysis (Aβ42: 25 μM); for % inhibition against the beta-amyloid 42 formation compared with curcumin: Tables 1 to 6, relative to curcumin
# T1 construct: Beta-amyloid 42 (Aβ42) was dissolved in dimethylsulfoxide (DMSO)
# T1 sequence (P05067 672-713 limits assumed): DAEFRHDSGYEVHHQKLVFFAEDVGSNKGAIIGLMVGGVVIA
# [1] = Passage test through the blood-brain barrier in mice (brain tissue); type: in vivo, ICR mice; conditions: for Kp / Tmax: mouse; for Kp: brain; for Tmax / Cmax (brain): brain tissue
# Protocol: 1) Test Animal and Administration of Test Compound
# Three 7 week-old ICR mice (weight: about 30 g) and three 8 week-old SD rats (weight: about 250 g) were used per test group. A solution prepared by dissolving the compounds of Examples 9 and 17 in excipient (DMSO/Tween 20/saline: 0.1/0.6/2.3, v/v/v) were administered to each experimental animal. The test compound was orally administered in an amount of 10 mL per kg of body weight or intravenously administered in an amount of 5 mL per kg of body weight through the fine vein.
# 2) Measurement of Concentration in Blood and Tissue (Simultaneous Test)
# At 30 min, 1 hr, 2 hr, 4 hr, 10 hr and 24 hr after administration of test compound, the mice and rats were subjected to insufflations narcosis using isoflorane, followed by cutting the abdomen open. 1 mL of blood was collected from abdominal veins into the tube containing heparin (1000 IU/mL, 3 μl). The obtained blood sample was centrifuged at 12,000 rpm, for 2 min to obtain plasma. The obtained plasma was kept in freezer at −80° C. until the analysis.
# (2) Organ Tissue-Sampling
# The mice and rats from which the blood sample was obtained were subjected to bloodletting, and then, brain tissue of the mice and rats was collected. The brain tissue thus obtained was washed with physiological saline once or twice to remove blood. The weight of the brain tissue was measured after the removal of adipose tissue and peripheral tissue. 4% bovine serum albumin (BSA) solution diluted with 10-fold was added to the brain tissue. The resulting solution was subjected to homogenization using the homogenizer. The diluted homogenate thus obtained was placed in 2 ml of tube and was kept in freezer at −80° C. until the analysis. All of the treatments to the samples were performed in ice.
# The sample was analyzed using LC/MSMS system under the following condition:
# The sample was pretreated as follows:
# 50 μL of plasma were placed in 2.0 mL of tube having a cap (Eppendorf Co.) and acidified by adding 20 μL of 0.1% formic acid thereto. An internal standard solution and 1 mL of ethyl acetate as an extract solvent were added to the resultant solution. The resultant solution was mixed using thermomixer (Eppendorf Co.) at 1400 rpm for 5 min and then subjected to centrifuge (Eppendorf Co.). The supernatant was collected and concentrated at 35° C. using cyclone. The residue was re-dissolved in 50 μL of moblie phase and 5 μL of the resulting solution was injected into LC/MS and analyzed.
# In Tables 8 and 9, “iv” refers to a intravenous injection; “po” refers to a per oral; “AUC plasma” refers to an area under the plasma level-time curve; “Cmax” refers to a maximum plasma concentration; “Tmax” refers to a time to reach Cmax, “BA” refers to a bioavailability (%) according to Equation 2 below; “AUC Brain” refers to a area under the brain tissue level-time curve; and “AUCBrain/AUCPlasma” refers to a passage rate of the test compound to the brain.
# [2] = ICR (mice), SD (rats), mice and rats, Tables 8 and 9, read-out: passage ability through the blood-brain barrier compared with plasma
# [3] = ICR, mice, 1.25 mg/kg, iv, read-out: AUCBrain/AUC Plasma
# [4] = ICR, mice, 2.5 mg/kg, po, read-out: AUCBrain/AUC Plasma
SMILES,inhibition at 10 µM (beta-amyloid 42 (Aβ42); experiment of Table 7) [%],pIC50 (beta-amyloid 42 (Aβ42); experiment of Table 1),pIC50 (beta-amyloid 42 (Aβ42); experiment of Table 7),% inhibition against the beta-amyloid 42 formation compared with curcumin (beta-amyloid 42 (Aβ42)),"Kp [1, 2]","Kp [1, 3]","Kp [1, 4]","Tmax ([1]; ICR, mice, 2.5 mg/kg, po) [h]","AUC Brain ([1]; mice, 1.25 mg/kg, iv) [ng·h/mL]","AUC Brain ([1]; mice, 2.5 mg/kg, po) [ng·h/mL]","Cmax (brain) ([1]; mice, 2.5 mg/kg, po) [ng/mL]"
"CNc1ccc(C=Cc2cc3cc(OC)ccc3o2)cc1 [Compound 17, 5-methoxy-2-(4-methylaminostyryl)benzofuran]",74.6,7.11,6.14,superior % inhibition,≥ 1,10.6,7.2,2,2525.45,2354.58,462.67
"COc1ccc2cc(C=Cc3ccc(N(C)C)cc3)oc2c1 [Compound 9, 6-methoxy-2-(4-dimethylaminostyryl)benzofuran]",78.7,7.15,6.01,superior % inhibition,≥ 1,12.1,12.6,4,6101.86,8137.42,899.33
